Source: patent US5440016A, “Peptides of the formula (KFmoc) ZZZ and their uses” (priority 1993, dated 1995)
Square brackets hold non-standard residues; d marks the D form. Ends that are not written are not given here. Peptide text beside a SMILES is read from it.

What was measured:
[1] = test system: Candida albicans ATCC 10231; details: Tables 22-23
[2] = test system: Escherichia coli ATCC 25922; details: Tables 22-23
Protocol: (§1) Escherichia coli ATCC 25922 and P. aeruginosa ATCC 27853 were used as Gram-negative (-) and Staphylococcus aureus ATCC 29213 as Gram-positive (+) bacteria. Bacteria were grown overnight at 37° C. in Mueller-Hinton (MH) broth. This culture was reinoculated and incubated at 37° C. to reach the exponential phase of bacteria growth, i.e., a final bacterial suspension containing 10^5 to 5×10^5 colony-forming units (CFU)/ml. The concentration of cells was established by plating 100 μl of different dilutions of the culture solution (e.g., 10^-2, 10^-3 and 10^-4) onto solid agar plates.
(§2) Following an overnight incubation at 37° C., the CFU thus formed were counted on each agar plate. In 96-well tissue culture plates, as control blanks, eight wells per plate contained only medium, while as a positive growth control, eight other wells contained medium plus cells.
(§3) The plates were incubated overnight at 37° C., and the optical density (OD) determined at 620 nm after different times of incubation.

[3] = test system: Human red blood cells (RBCs); experiment: Hemolytic activity; format: cell-based; details: at 100 μg/ml, Tables 22-23
[4] = test system: Streptococcus sanguis ATCC 10556; details: Tables 22-23
Protocol: Streptococcus sanguis ATCC 10556 (Gram-positive (+) bacteria present in tooth crevices) was grown overnight at 37° C. in Brain Heart Infusion (BHI) broth. This culture was reinoculated and incubated at 37° C. to reach the exponential phase of bacteria growth, i.e., a final bacterial suspension containing 10^5 to 5×10^5 colony-forming units (CFU)/ml. The concentration of cells was established by plating 100 μl of different dilutions of the culture solution (e.g., 10^-2, 10^-4) and 10^-4) onto solid agar plates. Following an overnight incubation at 37° C., the CFU thus formed were counted on each agar plate. In 96-well tissue culture plates, as control blanks, eight wells per plate contained only medium, while as a positive growth control, eight other wells contained medium plus cells. […] The plates were incubated overnight at 37° C., and the optical density (OD) determined at 620 nm after 20 to 24 hours incubation.

[5] = test system: Staphylococcus aureus ATCC 29213; details: Tables 22-23
Protocol: as §1, §2, §3

[6] = test system: P. aeruginosa ATCC 27853; experiment: Antimicrobial assay, P. aeruginosa; details: Tables 22-23
Protocol: as §1, §2, §3

Ac-RRWWCI-NH2 [Ac-RRWWCI-NH2]
IC50 (μg/ml) against C. albicans [1]: 93 to 102 µg/mL
IC50 (μg/ml) against E. coli [2]: 29 to 33 µg/mL
% hemolysis at 100 μg/ml [3]: 8.3%
IC50 (μg/ml) against S. sanguis [4]: 17 to 18 µg/mL
IC50 (μg/ml) against S. aureus [5]: 12 to 18 µg/mL
IC50 (μg/ml) against P. aeruginosa [6]: 40 to 70 µg/mL

Ac-RRWWCS-NH2 [Ac-RRWWCS-NH2]
IC50 (μg/ml) against C. albicans [1]: 211 to 213 µg/mL
IC50 (μg/ml) against E. coli [2]: 20 to 21 µg/mL
% hemolysis at 100 μg/ml [3]: 1.8%
IC50 (μg/ml) against S. sanguis [4]: 54 to 59 µg/mL
IC50 (μg/ml) against S. aureus [5]: 41 to 44 µg/mL
IC50 (μg/ml) against P. aeruginosa [6]: 290 µg/mL

Ac-RRWWCE-NH2 [Ac-RRWWCE-NH2]
IC50 (μg/ml) against C. albicans [1]: 842 to 874 µg/mL
IC50 (μg/ml) against E. coli [2]: > 125 µg/mL
% hemolysis at 100 μg/ml [3]: 0.0%
IC50 (μg/ml) against S. sanguis [4]: > 500 µg/mL
IC50 (μg/ml) against S. aureus [5]: > 125 µg/mL
IC50 (μg/ml) against P. aeruginosa [6]: 149 µg/mL

Ac-RRWWCM-NH2 [Ac-RRWWCM-NH2]
IC50 (μg/ml) against C. albicans [1]: 96 to 112 µg/mL
IC50 (μg/ml) against E. coli [2]: 23 to 27 µg/mL
% hemolysis at 100 μg/ml [3]: 15%
IC50 (μg/ml) against S. sanguis [4]: 13 to 22 µg/mL
IC50 (μg/ml) against S. aureus [5]: 13 to 20 µg/mL
IC50 (μg/ml) against P. aeruginosa [6]: 93 to 103 µg/mL

Ac-RRWWCG-NH2 [Ac-RRWWCG-NH2]
IC50 (μg/ml) against C. albicans [1]: 215 to 218 µg/mL
IC50 (μg/ml) against E. coli [2]: 22 to 23 µg/mL
% hemolysis at 100 μg/ml [3]: 1.9%
IC50 (μg/ml) against S. sanguis [4]: 47 to 66 µg/mL
IC50 (μg/ml) against S. aureus [5]: 46 to 49 µg/mL
IC50 (μg/ml) against P. aeruginosa [6]: 200 µg/mL

Ac-RRWWCA-NH2 [Ac-RRWWCA-NH2]
IC50 (μg/ml) against C. albicans [1]: 193 to 210 µg/mL
IC50 (μg/ml) against E. coli [2]: 21 to 23 µg/mL
% hemolysis at 100 μg/ml [3]: 2.2%
IC50 (μg/ml) against S. sanguis [4]: 60 to 70 µg/mL
IC50 (μg/ml) against S. aureus [5]: 35 to 40 µg/mL
IC50 (μg/ml) against P. aeruginosa [6]: 97 to 98 µg/mL

Ac-RRWWCD-NH2 [Ac-RRWWCD-NH2]
IC50 (μg/ml) against C. albicans [1]: > 1000 µg/mL
IC50 (μg/ml) against E. coli [2]: > 125 µg/mL
% hemolysis at 100 μg/ml [3]: 0.3%
IC50 (μg/ml) against S. sanguis [4]: > 500 µg/mL
IC50 (μg/ml) against S. aureus [5]: > 125 µg/mL
IC50 (μg/ml) against P. aeruginosa [6]: > 500 µg/mL

Ac-RRWWCK-NH2 [Ac-RRWWCK-NH2]
IC50 (μg/ml) against C. albicans [1]: 100 to 110 µg/mL
IC50 (μg/ml) against E. coli [2]: 17 to 21 µg/mL
% hemolysis at 100 μg/ml [3]: 0.5%
IC50 (μg/ml) against S. sanguis [4]: 38 to 42 µg/mL
IC50 (μg/ml) against S. aureus [5]: 17 to 18 µg/mL
IC50 (μg/ml) against P. aeruginosa [6]: 150 µg/mL

Ac-RRWWCP-NH2 [Ac-RRWWCP-NH2]
IC50 (μg/ml) against C. albicans [1]: 217 to 222 µg/mL
IC50 (μg/ml) against E. coli [2]: 19 to 27 µg/mL
% hemolysis at 100 μg/ml [3]: 0.0%
IC50 (μg/ml) against S. sanguis [4]: 190 µg/mL
IC50 (μg/ml) against S. aureus [5]: 49 to 50 µg/mL
IC50 (μg/ml) against P. aeruginosa [6]: 200 µg/mL

Cecropin A (KWKLFKKIEKVGQNIRDGIIKAGPAVAVVGQATQIAK; ends and bridges not checked; UniProt P01507 27-63, looked up) [reference compound]
IC50 (μg/ml) against C. albicans [1]: 81 to 88 µg/mL
IC50 (μg/ml) against E. coli [2]: 1 to 2 µg/mL
% hemolysis at 100 μg/ml [3]: 0.0%
IC50 (μg/ml) against S. sanguis [4]: 337 to 400 µg/mL
IC50 (μg/ml) against S. aureus [5]: > 500 µg/mL
IC50 (μg/ml) against P. aeruginosa [6]: 5 to 6 µg/mL

Ac-RRWWCV-NH2 [Ac-RRWWCV-NH2]
IC50 (μg/ml) against C. albicans [1]: 103 to 174 µg/mL
IC50 (μg/ml) against E. coli [2]: 17 to 18 µg/mL
% hemolysis at 100 μg/ml [3]: 0.0%
IC50 (μg/ml) against S. sanguis [4]: 41 to 46 µg/mL
IC50 (μg/ml) against S. aureus [5]: 19 to 21 µg/mL
IC50 (μg/ml) against P. aeruginosa [6]: 33 to 44 µg/mL

Ac-RRWWCR-NH2 [Ac-RRWWCR-NH2]
IC50 (μg/ml) against C. albicans [1]: 100 to 101 µg/mL
IC50 (μg/ml) against E. coli [2]: 12 to 18 µg/mL
% hemolysis at 100 μg/ml [3]: 0.0%
IC50 (μg/ml) against S. sanguis [4]: 22 to 45 µg/mL
IC50 (μg/ml) against S. aureus [5]: 11 to 12 µg/mL
IC50 (μg/ml) against P. aeruginosa [6]: 87 to 130 µg/mL

Ac-RRWWCW-NH2 [Ac-RRWWCW-NH2]
IC50 (μg/ml) against C. albicans [1]: 151 to 166 µg/mL
IC50 (μg/ml) against E. coli [2]: 58 to 61 µg/mL
% hemolysis at 100 μg/ml [3]: 14%
IC50 (μg/ml) against S. sanguis [4]: 55 to 78 µg/mL
IC50 (μg/ml) against S. aureus [5]: 41 to 43 µg/mL
IC50 (μg/ml) against P. aeruginosa [6]: 60 to 88 µg/mL

CC(=O)N[C@@H](CCCNC(=N)N)C(=O)N[C@@H](CCCNC(=N)N)C(=O)N[C@@H](Cc1c[nH]c2ccccc12)C(=O)N[C@@H](Cc1c[nH]c2ccccc12)C(=O)N[C@@H](CS)C(=O)N[C@@H](CS)C(N)=O [Ac-RRWWCC-NH2] (Ac-RRWWCC-NH2)
IC50 (μg/ml) against C. albicans [1]: 162 to 166 µg/mL
IC50 (μg/ml) against E. coli [2]: 54 to 68 µg/mL
% hemolysis at 100 μg/ml [3]: 9.5%
IC50 (μg/ml) against S. sanguis [4]: 92 to 94 µg/mL
IC50 (μg/ml) against S. aureus [5]: 47 to 63 µg/mL
IC50 (μg/ml) against P. aeruginosa [6]: 86 to 88 µg/mL

Ac-RRWWCY-NH2 [Ac-RRWWCY-NH2]
IC50 (μg/ml) against C. albicans [1]: 184 to 212 µg/mL
IC50 (μg/ml) against E. coli [2]: 20 to 21 µg/mL
% hemolysis at 100 μg/ml [3]: 5.8%
IC50 (μg/ml) against S. sanguis [4]: 59 to 60 µg/mL
IC50 (μg/ml) against S. aureus [5]: 12 to 28 µg/mL
IC50 (μg/ml) against P. aeruginosa [6]: 97 to 110 µg/mL

Ac-RRWWCF-NH2 [Ac-RRWWCF-NH2]
IC50 (μg/ml) against C. albicans [1]: 70 to 97 µg/mL
IC50 (μg/ml) against E. coli [2]: 20 to 21 µg/mL
% hemolysis at 100 μg/ml [3]: 3.3%
IC50 (μg/ml) against S. sanguis [4]: 14 to 22 µg/mL
IC50 (μg/ml) against S. aureus [5]: 10 to 14 µg/mL
IC50 (μg/ml) against P. aeruginosa [6]: 42 to 45 µg/mL

CC(=O)N[C@H](CCCNC(=N)N)C(=O)N[C@H](CCCNC(=N)N)C(=O)N[C@H](Cc1c[nH]c2ccccc12)C(=O)N[C@H](Cc1c[nH]c2ccccc12)C(=O)N[C@H](CS)C(=O)N[C@H](CCCNC(=N)N)C(N)=O [Ac-rrwwcr-NH2] (Ac-[dR][dR][dW][dW][dC][dR]-NH2)
IC50 (μg/ml) against C. albicans [1]: 68 to 78 µg/mL
IC50 (μg/ml) against E. coli [2]: 10 to 11 µg/mL
% hemolysis at 100 μg/ml [3]: 2.0%
IC50 (μg/ml) against S. sanguis [4]: 14 to 15 µg/mL
IC50 (μg/ml) against S. aureus [5]: 9 to 13 µg/mL
IC50 (μg/ml) against P. aeruginosa [6]: 28 to 29 µg/mL

Ac-RRWWCH-NH2 [Ac-RRWWCH-NH2]
IC50 (μg/ml) against C. albicans [1]: 69 to 107 µg/mL
IC50 (μg/ml) against E. coli [2]: 20 to 28 µg/mL
% hemolysis at 100 μg/ml [3]: 0.0%
IC50 (μg/ml) against S. sanguis [4]: 53 to 62 µg/mL
IC50 (μg/ml) against S. aureus [5]: 26 to 28 µg/mL
IC50 (μg/ml) against P. aeruginosa [6]: 59 to 65 µg/mL

Ac-RRWWCT-NH2 [Ac-RRWWCT-NH2]
IC50 (μg/ml) against C. albicans [1]: 216 to 223 µg/mL
IC50 (μg/ml) against E. coli [2]: 24 to 28 µg/mL
% hemolysis at 100 μg/ml [3]: 0.5%
IC50 (μg/ml) against S. sanguis [4]: 56 to 61 µg/mL
IC50 (μg/ml) against S. aureus [5]: 38 to 47 µg/mL
IC50 (μg/ml) against P. aeruginosa [6]: 180 µg/mL

Ac-RRWWCN-NH2 [Ac-RRWWCN-NH2]
IC50 (μg/ml) against C. albicans [1]: 222 to 227 µg/mL
IC50 (μg/ml) against E. coli [2]: 40 to 55 µg/mL
% hemolysis at 100 μg/ml [3]: 0.1%
IC50 (μg/ml) against S. sanguis [4]: 230 µg/mL
IC50 (μg/ml) against S. aureus [5]: 98 to 125 µg/mL
IC50 (μg/ml) against P. aeruginosa [6]: 120 µg/mL

Ac-RRWWCQ-NH2 [Ac-RRWWCQ-NH2]
IC50 (μg/ml) against C. albicans [1]: 223 to 230 µg/mL
IC50 (μg/ml) against E. coli [2]: 41 to 42 µg/mL
% hemolysis at 100 μg/ml [3]: 0.0%
IC50 (μg/ml) against S. sanguis [4]: 230 µg/mL
IC50 (μg/ml) against S. aureus [5]: 52 to 98 µg/mL
IC50 (μg/ml) against P. aeruginosa [6]: 60 to 65 µg/mL
